Results taken from EP0326326A1, “Cysteine derivatives” (SANTEN PHARMACEUTICAL CO., LTD., priority 1988, dated 1989).

What was measured:
[1] = tested on: haemolytic plaque-forming spleen cells; assay: Effect on immune response against sheep red blood cells of mouse (haemolytic plaque-forming spleen cell count); type: in vivo, female BALB/c mice; settings: Erythrocyte, ip, 96 h, mice immunized with 5 x 10⁸ sheep red blood cells i.p., compound administered continuously for 4 days, calculated from the cell count, read-out: 50% suppressive dose
Experimental: According to the method of Iso ( Int. J. Immunotherapy, 1, 93 (1985)), 5 x 10⁸ sheep red blood cells were administered intraperitoneally to female BALB/c mice ( 3 to 5 mice a group ) and immunized.
After immunization, the test compound suspended in 1% methyl cellulose solution was administered continuously for 4 days.
Mice were killed and the number of haemolytic plaque-forming spleen cells were measured.
50% suppressive dose was calculated based on the cell count. For a comparison, the similar test with the known compound of the formula[IV] described in US Patent 4305958 was performed.

[2] = tested on: liver disorder caused by CCl₄; assay: Effect on the liver disorder caused by CCl₄ (serum GOT and GPT levels); type: in vivo, male Wistar rats; settings: 24 hours after CCl₄ 0.25ml/kg intraperitoneally, test compound 300mg/kg orally 30 minutes before, rat
Experimental: The rat liver disorder model cause by CCl₄ is generally used to examine the efficacy of a drug for liver diseases.
The test compound was suspended in tragacanth gum solution and administered orally to male Wistar rats ( 5rats a group) at a dose of 300mg/kg.
Thirty minutes later, CCl₄ a liver disorder inducer, was given intraperitoneally at a dose of 0.25ml/kg.
Serum GOT and GPT levels were measured 24 hours after the administration of CCl₄ . To a control, 0.5% tragacanth gum solution was given.

ddY mice = assay: Acute toxicity; settings: mouse, in vivo, po, 2000 mg/kg
Experimental: (§1) The compound No.2 was suspended in 0.5% methyl cellulose solution at 20% concentration. The solution was administered orally to ddY mice ( male, 5 weeks age, 6 mice a group ) at a dose of 2000mg/kg.

Acute toxicity = assay: Acute toxicity; parameters: species or system ddY mice; settings: mouse, in vivo; oral, ddY mice, male, single dose of 2000mg/kg; read-out: LD₅₀
Experimental: as §1

| Structure (SMILES) | ED50 [1] [mg/kg] | GOT [2] | GPT [2] | Toxicity (ddY mice) | LD50 (Acute toxicity) [mg/kg] |
| --- | --- | --- | --- | --- | --- |
| CC(C)(CS)C(=O)N[C@@H](CS)C(=O)O [Compound No.2, N-(2,2-Dimethyl-3-mercaptopropionyl)-L-cysteine] | 19.1 | 13605 | 6558 | weak with a single case of death | > 2000 |
| CC(C)(S)C(=O)NC(CS)C(=O)O (stereo not drawn) [known compound, reference compound] | 90.6 | – | – | – | – |
